In patent EP3807270B1, “NOVEL HETEROARYL HETEROCYCLYL COMPOUNDS FOR THE TREATMENT OF AUTOIMMUNE DISEASE” (F. Hoffmann-La Roche AG, priority 2018, dated 2019):

What follows are compounds tested against T1, hTLR9 (Homo sapiens, UniProt Q9NR96) (assay: HEK293-Blue-hTLR-9 cells assay (SEAP reporter, ODN2006 stimulation)). Conditions: HEK293-Blue-hTLR9 cells, ODN2006, 20 hrs; read-out: HEK/hTLR9 IC50.
T1 sequence (Q9NR96 26-1032): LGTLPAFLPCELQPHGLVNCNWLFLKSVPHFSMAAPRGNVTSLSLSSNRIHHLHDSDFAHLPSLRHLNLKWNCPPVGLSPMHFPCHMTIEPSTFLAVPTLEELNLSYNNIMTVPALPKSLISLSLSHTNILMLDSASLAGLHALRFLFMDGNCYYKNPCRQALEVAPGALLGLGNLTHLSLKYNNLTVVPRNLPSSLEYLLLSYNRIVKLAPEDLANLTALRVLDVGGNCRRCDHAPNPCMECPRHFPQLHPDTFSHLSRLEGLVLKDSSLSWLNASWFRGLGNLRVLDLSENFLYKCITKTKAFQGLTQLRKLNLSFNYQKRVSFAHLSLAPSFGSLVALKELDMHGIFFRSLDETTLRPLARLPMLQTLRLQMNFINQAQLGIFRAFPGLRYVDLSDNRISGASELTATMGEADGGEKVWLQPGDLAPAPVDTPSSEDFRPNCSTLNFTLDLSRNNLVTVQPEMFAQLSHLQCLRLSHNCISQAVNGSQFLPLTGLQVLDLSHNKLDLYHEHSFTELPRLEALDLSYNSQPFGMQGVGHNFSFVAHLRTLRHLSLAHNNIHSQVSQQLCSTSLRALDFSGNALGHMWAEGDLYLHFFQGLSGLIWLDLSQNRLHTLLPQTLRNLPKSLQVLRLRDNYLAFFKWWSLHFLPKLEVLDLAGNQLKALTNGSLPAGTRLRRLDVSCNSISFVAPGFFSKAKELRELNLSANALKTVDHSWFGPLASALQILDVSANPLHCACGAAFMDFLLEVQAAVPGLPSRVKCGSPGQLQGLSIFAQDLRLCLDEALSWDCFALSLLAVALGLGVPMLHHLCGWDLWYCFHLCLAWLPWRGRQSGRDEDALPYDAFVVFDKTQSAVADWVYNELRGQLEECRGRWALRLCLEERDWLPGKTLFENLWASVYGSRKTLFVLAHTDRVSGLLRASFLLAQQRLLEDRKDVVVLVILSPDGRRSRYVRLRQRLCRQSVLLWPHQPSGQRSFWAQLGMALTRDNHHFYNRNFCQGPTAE
Format: cell-based
Set-up: host or cells: HEK293 (HEK-Blue)
From the text: A stable HEK293-Blue-hTLR-9 cell line was purchased from InvivoGen (Cat.#: hkb-htlr9, San Diego, California, USA). These cells were originally designed for studying the stimulation of human TLR9 by monitoring the activation of NF-κB. A SEAP (secreted embryonic alkaline phosphatase) reporter gene was placed under the control of the IFN-β minimal promoter fused to five NF-κB and AP-1-binding sites. The SEAP was induced by activating NF-κB and AP-1 via stimulating HEK-Blue hTLR9 cells with TLR9 ligands. Therefore, the reporter expression was declined by TLR9 antagonist under the stimulation of a ligand, such as ODN2006 (Cat.#: tlrl-2006-1, Invivogen, San Diego, California, USA), for incubation of 20 hrs. The cell culture supernatant SEAP reporter activity was determined using QUANTI-Blue™ kit (Cat.#: rep-qb 1, Invivogen, San Diego, California, USA) at a wavelength of 640 nm, a detection medium that turns purple or blue in the presence of alkaline phosphatase.
HEK293-Blue-hTLR9 cells were incubated at a density of 250,000-450,000 cells/mL in a volume of 170 µL in a 96-well plate in Dulbecco's Modified Eagle's medium (DMEM) containing 4.5 g/L glucose, 50 U/mL penicillin, […], […], 2 mM L-glutamine, 10% (v/v) heat-inactivated fetal bovine serum with addition of 20 µL test compound in a serial dilution in the presence of final DMSO at 1% and 10 µL of 20uM ODN2006 in above DMEM, perform incubation under 37 °C in a CO2 incubator for 20 hrs. Then 20 µL of the supernatant from each well was incubated with 180 µL Quanti-blue substrate solution at 37 °C for 2 hrs and the absorbance was read at 620-655 nm using a spectrophotometer. The signaling pathway that TLR9 activation leads to downstream NF-κB activation has been widely accepted, and therefore similar reporter assay was modified for evaluating TLR9 antagonist.

Row | Structure (SMILES) | IC50
1 | C[C@@H]1CN(c2ccc(C#N)c3ncccc23)C[C@H](CN2CCN(c3ccc4c(n3)CCNC4)C[C@H](O)C2)O1 (single isomer, unassigned) [Example 35A] | 147 nM
2 | C[C@@H]1CN(c2ccc(C#N)c3ncccc23)C[C@H](CN2CCN(c3ccc4c(n3)CCNC4)C[C@@H](O)C2)O1 (single isomer, unassigned) [Example 35B] | 117 nM
3 | C[C@@H]1CN(c2ccc(C#N)c3ncccc23)C[C@H](CN2C[C@H]3CN(c4ccc5c(n4)CCNC5)CC[C@@H]32)O1 (single isomer, unassigned) [Example 54] | < 32 nM
4 | C[C@@H]1CN(c2ccc(C#N)c3ncccc23)C[C@H](CN2CCN(c3ccc4c(n3)CN[C@H]4C)CC2)O1 (single isomer, unassigned) [Example 63] | 67 nM
5 | C[C@@H]1CN(c2ccc(C#N)c3ncccc23)C[C@H](CN2CCN(c3ccc4c(n3)CN[C@@H]4C)CC2)O1 (single isomer, unassigned) [Example 64] | 92 nM
6 | C[C@@H]1CN(c2ccc(C#N)c3ncccc23)C[C@H](CN2CCN(c3ccc4c(n3)[C@@H](C)NC4)CC2)O1 (single isomer, unassigned) [Example 65] | 81 nM
7 | C[C@@H]1CN(c2ccc(C#N)c3ncccc23)C[C@H](CN2CCN(c3ccc4c(n3)[C@H](C)NC4)CC2)O1 (single isomer, unassigned) [Example 66] | 112 nM
8 | C[C@@H]1CN(c2ccc(C#N)c3ncccc23)C[C@H](CN2CCN(c3cnc4c(c3)CN[C@H]4C)CC2)O1 (single isomer, unassigned) [Example 67] | 143 nM
9 | C[C@@H]1Cc2cc(N3CCN(C[C@H]4CN(c5ccc(C#N)c6ncccc56)C[C@@H](C)O4)CC3)ncc2CN1 (single isomer, unassigned) [Example 70] | 83 nM
10 | C[C@@H]1CN(c2ccc(C#N)c3ncccc23)C[C@H](CN2CCN(c3cc4c(cn3)CN[C@@H](C)C4)CC2)O1 (single isomer, unassigned) [Example 71] | 91 nM
11 | C[C@@H]1CN(c2ccc(C#N)c3ncccc23)C[C@H](CN2CCN(c3cc4c(cn3)[C@H](C)NCC4)CC2)O1 (single isomer, unassigned) [Example 72] | 66 nM
12 | C[C@@H]1CN(c2ccc(C#N)c3ncccc23)C[C@H](CN2CCN(c3cc4c(cn3)CCN[C@H]4C)CC2)O1 (single isomer, unassigned) [Example 75] | 68 nM
13 | C[C@@H]1Cc2cnc(N3CCN(C[C@H]4CN(c5ccc(C#N)c6ncccc56)C[C@@H](C)O4)CC3)cc2CN1 (single isomer, unassigned) [Example 77] | 115 nM
14 | C[C@@H]1Cc2cnc(N3CCN(C[C@H]4CN(c5ccc(C#N)c6nccnc56)C[C@@H](C)O4)CC3)cc2CN1 (single isomer, unassigned) [Example 82] | 192 nM
15 | C[C@@H]1CN(c2ccc(C#N)c3nccnc23)C[C@H](CN2CCN(c3cc4c(cn3)[C@H](C)NCC4)CC2)O1 (single isomer, unassigned) [Example 85] | 87 nM
16 | C[C@@H]1CN(c2ccc(C#N)c3ncccc23)C[C@H](CN2CCN(c3ccc4c(c3)CNC4)[C@@H](CO)C2)O1 [Example 4, 5-[(2S,6R)-2-[[(3R)-3-(hydroxymethyl)-4-isoindolin-5-yl-piperazin-1-yl]methyl]-6-methyl-morpholin-4-yl]quinoline-8-carbonitrile] | 148 nM
17 | C[C@@H]1CN(c2ccc(C#N)c3ncccc23)C[C@H](CN2CCN(c3ncc4c(n3)CNCC4)CC2)O1 [Example 12, 5-[(2R,6S)-2-methyl-6-[[4-(5,6,7,8-tetrahydropyrido[3,4-d]pyrimidin-2-yl)piperazin-1-yl]methyl]morpholin-4-yl]quinoline-8-carbonitrile] | 143 nM
18 | C[C@@H]1CN(c2ccc(C#N)c3ncccc23)C[C@H](CN2CCN(c3ccc4c(c3)CNC4)C(CO)C2)O1 (stereo partly drawn) [Example 13, 5-[(2S,6R)-2-[[3-(hydroxymethyl)-4-isoindolin-5-yl-piperazin-1-yl]methyl]-6-methyl-morpholin-4-yl]quinoline-8-carbonitrile] | 109 nM
19 | C[C@@H]1CN(c2ccc(C#N)c3ncccc23)C[C@H](CN2CCN(c3ccc4c(c3)CNC4)CC2CO)O1 (stereo partly drawn) [Example 15, 5-[(2S,6R)-2-[[2-(hydroxymethyl)-4-isoindolin-5-yl-piperazin-1-yl]methyl]-6-methyl-morpholin-4-yl]quinoline-8-carbonitrile] | 97 nM
20 | C[C@@H]1CN(c2ccc(C#N)n3ncc(F)c23)C[C@H](CN2CCN(c3cnc4c(c3)CNC4)CC2)O1 [Example 26, 4-[(2S,6R)-2-[[4-(6,7-dihydro-5H-pyrrolo[3,4-b]pyridin-3-yl)piperazin-1-yl]methyl]-6-methyl-morpholin-4-yl]-3-fluoro-pyrazolo[1,5-a]pyridine-7-carbonitrile] | 119 nM
21 | CC1NCc2cc(N3CCN(C[C@H]4CN(c5ccc(C#N)c6ncccc56)C[C@@H](C)O4)CC3)ccc21 (stereo partly drawn) [Example 28, 5-[(2R,6S)-2-methyl-6-[[4-(1-methylisoindolin-5-yl)piperazin-1-yl]methyl]morpholin-4-yl]quinoline-8-carbonitrile] | 52 nM
22 | C[C@@H]1CN(c2ccc(C#N)c3ncccc23)C[C@H](CN2CCN(c3nc4c(s3)CNCC4)CC2)O1 [Example 31, 5-[(2R,6S)-2-methyl-6-[[4-(4,5,6,7-tetrahydrothiazolo[5,4-c]pyridin-2-yl)piperazin-1-yl]methyl]morpholin-4-yl]quinoline-8-carbonitrile] | 140 nM
23 | C[C@@H]1CN(c2ccc(C#N)c3ncccc23)C[C@H](CN2CCC(Nc3ccc4c(c3)CNC4)C2)O1 (stereo partly drawn) [Example 38, 5-[(2S,6R)-2-[[3-(isoindolin-5-ylamino)pyrrolidin-1-yl]methyl]-6-methyl-morpholin-4-yl]quinoline-8-carbonitrile] | 34 nM
24 | C[C@@H]1CN(c2ccc(C#N)c3ncccc23)C[C@H](CNC2CN(c3cnc4c(c3)CNC4)C2)O1 [Example 43, 5-[(2S,6R)-2-[[[1-(6,7-dihydro-5H-pyrrolo[3,4-b]pyridin-3-yl)azetidin-3-yl]amino]methyl]-6-methyl-morpholin-4-yl]quinoline-8-carbonitrile] | 111 nM
25 | C[C@@H]1CN(c2ccc(C#N)c3ncccc23)C[C@H](CN2CC3(C2)CN(c2ncc4c(n2)CCNC4)CCO3)O1 [Example 51, 5-[(2R,6S)-2-methyl-6-[[8-(5,6,7,8-tetrahydropyrido[4,3-d]pyrimidin-2-yl)-5-oxa-2,8-diazaspiro[3.5]nonan-2-yl]methyl]morpholin-4-yl]quinoline-8-carbonitrile] | 134 nM
26 | C[C@@H]1CN(c2ccc(C#N)c3ncccc23)C[C@H](CN2CCN(c3ccc4c(c3)C(O)CN(C)C4)CC2)O1 (stereo partly drawn) [Example 59, 5-[(2S,6R)-2-[[4-(4-hydroxy-2-methyl-3,4-dihydro-1H-isoquinolin-6-yl)piperazin-1-yl]methyl]-6-methyl-morpholin-4-yl]quinoline-8-carbonitrile] | 133 nM
27 | Cc1nc2c(nc1N1CCN(C[C@H]3CN(c4ccc(C#N)c5ncccc45)C[C@@H](C)O3)CC1)CCNC2 [Example 60, 5-[(2R,6S)-2-methyl-6-[[4-(3-methyl-5,6,7,8-tetrahydropyrido[3,4-b]pyrazin-2-yl)piperazin-1-yl]methyl]morpholin-4-yl]quinoline-8-carbonitrile] | 156 nM
